How the values were obtained:
[1] = test system: HIF-1α target genes (VEGF, ALDOC, CA9, GLUT1, CXCR4); test: Semiquantitative RT-PCR of HIF-1α target genes in A549 cells; type: cell-based, human; settings: 1–100 nM, 16 h, hypoxia
Excerpt: As HIF-1α regulates transcription of its target genes, which are involved in angiogenesis, glucose metabolism, and metastasis in tumor progression, we determined the effects of Compound 12 on HIF-1 target gene expression at the mRNA level by semiquantitative RT-PCR. […] Thus, we checked secreted VEGF protein levels in culture media via ELISA.
Figure 5 Compound 12 suppressed HIF-1α target gene expression, and confirmation of in vitro results via determination of effects on angiogenesis in vivo (A) A549 cells were treated with Compound 12 (at concentrations of 0 nM, 1 nM, 10 nM, and 100 nM) for 16 h. The mRNA levels of HIF-1α target genes were determined by semiquantitative RT-PCR. β-actin was used as an internal control. D. DMSO vehicle control. N, normoxia; H, hypoxia. […] Media supernatant was collected, and secreted VEGF was determined by ELISA after removal of cellular debris. […] Cells that migrated through the membrane (8 μm pore size) were stained with hematoxylin and eosin, pictured as shown in upper panel, and counted (graph). *P < 0.05, **P < 0.01 versus VEGF-treated control. […] (F) Compound 12 (0.1 μg and 1 μg dosages) and retinoic acid (RA, positive control) were applied to the ED 4.5 CAM for two days, neovessel formation from the large vessels was observed, and percentages of positive angiogenic eggs (from total eggs tested) were calculated. […]

[2] = test system: HIF-1 (5xHRE-Luc reporter in HEK-293 cells); test: Dual-luciferase HRE reporter assay under hypoxia; type: cell-based; settings: Homo sapiens, HEK293, hypoxia 1% O2, 24 h, compared to hypoxic control, read-out: inhibition of hypoxia-induced HRE Luc reporter activity (HIF-1α transactivation)
Method: To identify active inhibitors of HIF-1α, a cell-based reporter assay was performed. HEK-293 cells were co-transfected with pGL3-5xHRE-Luc plasmid harboring five copies of hypoxia responsive element (HRE) from the VEGF gene promoter, and with pRL-SV40 encoding Renilla genes. The HRE-containing promoter of the HIF-1 target genes is regulated by HIF-1 activation. Transfected cells were treated with chemical compounds at 1 μM and were exposed to hypoxic conditions (1% O2) for 24 h, and then were assayed. Echinomycin (E), a well-known HIF-1α inhibitor, was used as a positive control. Compared to normoxic control conditions, hypoxia increased this luciferase reporter's activity by approximately three-fold.
Figure 1 Screening of 144 compounds from an in-house chemical library for inhibition of HIF-1 activity HEK-293 cells were co-transfected with luciferase reporter plasmids (pGL3-HRE-luciferase) and Renilla vector (pRL-SV40). Cells were exposed to hypoxic conditions in the presence or absence of chemicals for 24 h, and were then lysed for assays of luciferase activity. […]
HEK-293 cells were seeded onto 96-well plates at a density of 5 × 10^3 cells/well, and allowed to attach for 24 h. […] Firefly luminescence was measured using a microplate reader (Infinite M200 Pro, TECAN, Männedorf, Switzerland). […] Renilla luminescence was measured using a microplate reader. […]

In the case of `COc1ccc(-c2cn(CC3(C)C=Cc4cc([N+](=O)[O-])ccc4O3)nn2)cc1` (centres unmarked) [Compound 12, 4-(4-methoxyphenyl)-1-((2-methyl-6-nitro-2H-chromen-2-yl)methyl)-1H-1,2,3-triazole], the “mRNA levels of VEGF, ALDOC, CA9, GLUT1 and CXCR4” value [1] is reported as “suppressed the mRNA levels” and the inhibition at 1 µM [2] is reported as 50%.

Reference: publication PMC5352362, “Molecular and functional evaluation of a novel HIF inhibitor, benzopyranyl 1,2,3-triazole compound” (Oncotarget, 2016)
